One test concerns HepG2 cells. As to the kind of experiment: HepG2 cellular scatter assay (HGF-induced, RT-CES impedance). The note with it: Homo sapiens, 40 ng/ml HGF. In kind it is cell-based. An excerpt:
Human Growth Factor (HGF) and its receptor (c-Met) are involved in cellular motility. Indeed HGF was also identified as Scatter Factor (SF), based on its powerful motility effect on certain cell types. Cellular motility is critical for pathological processes of oncologic disease, most importantly, the establishment of metastatic lesions distant from the primary tumor and formation of new blood vessels (angiogenesis). One therapeutic hypothesis is that this movement of cell types may be blunted or eliminated by the use of c-Met kinase inhibitors. (See: Jiang, W. C, Martin, T. A., Parr, C., Davies, G., Matsumoto, K. and Nakamura, T. Critical Reviews in Oncology/Hematology 53 (2005) 35-69. and references cited therein.) It should also be noted that cellular motility, especially with regard to angiogenesis, is important in other disease states.
Cellular scatter was measured with a Real-Time Cell Electronic Sensing system (RT-CES), from ACEA Biosciences Inc. (San Diego, Calif.). The RT-CES system uses specialized RT-ACE microtiter plates (cat:RCD96, ACEA Biosciences Inc.) to non-invasively quantify cellular status in real-time. The interaction of cells with the surface of the plates, which are integrated with microelectronic sensor arrays, leads to the generation of a cell-electrode impedance response. A higher impedance value indicates more cell attachment and thus less cellular scatter.
50 μl of Assay Media (MEM supplemented with 10% FBS, 2 mM L-glutamine, 1.5 g/L sodium bicarbonate, 1 mM sodium pyruvate, and 0.1 mM non-essential amino acids) was added into 96-well RT-ACE plates and recorded for 30 min on the RT-CES. 50 μl of HepG2 cells (cat: HB-8065, ATCC) were added into each well ([…]). The plate was read in RT-CES and incubated for 20-24 hours. After the 20-24 hours incubation, 50 μl of Assay Media containing different concentrations of testing compounds was added into each well and incubated for 1 hour. Finally, 50 μl of Assay Media containing 160 ng/ml of HGF was added into each well (40 ng/ml in 200 μl). The plate was incubated and read in the RT-CES for 20-24 hours, with a record time every 15 minutes. The positive control was HGF without compounds and negative control was no-HGF without compound. All determinations were performed in duplicate wells and IC50 values were calculated using GraphPad Prism software (GraphPad Software; San Diego, Calif.).

Test [1] has as its target T1, c-Met (Homo sapiens, UniProt P08581). As to the kind of experiment: Delfia autophosphorylation kinase assay on the c-Met. The class given is biochemical. More on the design: The purified His6 tagged cytoplasmic domain of c-Met was diluted to a concentration of 500 ng/ml; host or cells: Sf9 insect cells (baculovirus, pFastBacHTa). The note with it: His6 tagged cytoplasmic domain of c-Met, 1 μM ATP; read-out: cMet Delfia autophos IC-50. In short, it runs like this:
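Time-resolved fluorescence tracked autophosphorylation of the His6-tagged c-Met cytoplasmic domain, dispensed at 500 ng/ml onto nickel-chelate plates. Reaction buffer held 1 μM ATP, 10 mM MgCl2, vanadate and DTT at pH 8.0, for 1 h at room temperature.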
Target sequence in this assay (P08581 956-1390 limits assumed): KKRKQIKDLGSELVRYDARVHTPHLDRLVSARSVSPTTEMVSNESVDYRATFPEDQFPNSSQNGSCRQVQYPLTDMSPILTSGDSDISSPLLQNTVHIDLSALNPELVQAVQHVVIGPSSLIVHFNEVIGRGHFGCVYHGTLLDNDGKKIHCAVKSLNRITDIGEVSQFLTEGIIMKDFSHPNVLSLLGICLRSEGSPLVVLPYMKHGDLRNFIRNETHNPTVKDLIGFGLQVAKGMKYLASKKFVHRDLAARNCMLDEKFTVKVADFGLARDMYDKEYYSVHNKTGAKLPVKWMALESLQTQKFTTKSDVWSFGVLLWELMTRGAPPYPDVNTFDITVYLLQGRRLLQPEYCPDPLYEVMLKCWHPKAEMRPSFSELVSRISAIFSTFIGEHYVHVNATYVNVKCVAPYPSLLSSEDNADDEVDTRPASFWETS

The target in test [2] is T1, c-Met. The test can be described thus: Cell based ELISA assay for HGF stimulated c-Met phosphorylation in S114 cells. Details: expressed in transfected cells; host or cells: S114 (murine NIH 3T3 derived). The note with it: read-out: c-Met Cell ELISA IC-50.
Target sequence in this assay (P08581 25-1390): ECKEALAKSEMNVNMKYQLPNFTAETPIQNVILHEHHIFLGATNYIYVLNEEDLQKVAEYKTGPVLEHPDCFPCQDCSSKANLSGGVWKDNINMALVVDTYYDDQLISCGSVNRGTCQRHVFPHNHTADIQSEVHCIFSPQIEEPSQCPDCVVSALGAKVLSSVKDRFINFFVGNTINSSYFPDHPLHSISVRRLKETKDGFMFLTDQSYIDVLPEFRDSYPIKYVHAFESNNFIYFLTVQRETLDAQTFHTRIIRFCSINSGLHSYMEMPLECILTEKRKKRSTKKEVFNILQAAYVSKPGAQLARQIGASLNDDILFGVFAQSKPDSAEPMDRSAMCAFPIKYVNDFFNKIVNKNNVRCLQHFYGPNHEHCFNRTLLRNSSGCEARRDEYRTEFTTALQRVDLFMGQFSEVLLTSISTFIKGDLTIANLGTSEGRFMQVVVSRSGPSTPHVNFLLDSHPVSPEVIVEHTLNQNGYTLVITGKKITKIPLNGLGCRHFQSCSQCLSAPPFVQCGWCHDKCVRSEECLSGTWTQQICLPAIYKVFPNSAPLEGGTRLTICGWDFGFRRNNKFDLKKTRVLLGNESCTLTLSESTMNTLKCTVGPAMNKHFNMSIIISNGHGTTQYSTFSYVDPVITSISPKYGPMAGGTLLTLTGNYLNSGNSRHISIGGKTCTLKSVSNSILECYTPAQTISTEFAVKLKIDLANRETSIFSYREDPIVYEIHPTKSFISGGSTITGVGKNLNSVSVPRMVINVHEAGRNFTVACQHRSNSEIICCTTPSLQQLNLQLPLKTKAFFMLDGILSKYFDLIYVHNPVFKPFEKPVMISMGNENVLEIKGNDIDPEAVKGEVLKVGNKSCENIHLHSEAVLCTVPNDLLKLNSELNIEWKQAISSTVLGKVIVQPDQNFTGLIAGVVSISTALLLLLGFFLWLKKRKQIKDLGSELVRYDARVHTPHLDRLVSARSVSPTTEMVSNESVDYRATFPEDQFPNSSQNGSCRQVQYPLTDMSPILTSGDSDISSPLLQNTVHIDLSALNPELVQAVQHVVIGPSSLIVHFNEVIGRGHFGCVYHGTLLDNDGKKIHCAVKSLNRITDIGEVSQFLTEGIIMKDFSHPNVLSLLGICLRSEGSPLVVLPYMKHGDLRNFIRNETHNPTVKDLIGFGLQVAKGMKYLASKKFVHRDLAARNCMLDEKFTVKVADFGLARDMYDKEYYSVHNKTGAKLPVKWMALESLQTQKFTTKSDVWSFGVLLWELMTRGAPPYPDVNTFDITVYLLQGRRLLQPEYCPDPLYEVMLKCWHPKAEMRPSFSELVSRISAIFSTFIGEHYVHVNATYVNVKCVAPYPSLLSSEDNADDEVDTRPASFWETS

pIC50: −log10 of the molar value.

Consider `FC(F)(c1ccc2ncccc2c1)c1nnc2ccc(-c3ccncc3)nn12` [Example 60, 6-[Difluoro-(6-pyridin-4-yl-[1,2,4]triazolo[4,3-b]pyridazin-3-yl)-methyl]-quinoline], for which the pIC50 in the test with HepG2 cells was 6.54; on c-Met [1] it was 9.00; at c-Met [2], 7.92.

For `Cc1cc(-c2ccc3nnc(C(F)(F)c4ccc5ncccc5c4)n3n2)ccn1` [Example 86, 6-{Difluoro-[6-(2-methyl-pyridin-4-yl)-[1,2,4]triazolo[4,3-b]pyridazin-3-yl]-methyl}-quinoline], the pIC50 was 6.15 in the test on HepG2 cells, 8.55 on c-Met [1] and 7.47 at c-Met [2].

For the compound `CN1CCN(C(=O)c2ccc(-c3ccc4nnc(C(F)(F)c5ccc6ncccc6c5)n4n3)s2)CC1` [Example 97, {5-[3-(Difluoro-quinolin-6-yl-methyl)-[1,2,4]triazolo[4,3-b]pyridazin-6-yl]thiophen-2-yl}-(4-methyl-piperazin-1-yl)-methanone], the pIC50 in the test with HepG2 cells was 5.93; at c-Met [1], 8.52; on c-Met [2], 8.52.

As for `CS(=O)(=O)N1CCN(C(=O)c2ccc(-c3ccc4nnc(C(F)(F)c5ccc6ncccc6c5)n4n3)s2)CC1` [Example 98, {5-[3-(Difluoro-quinolin-6-yl-methyl)-[1,2,4]triazolo[4,3-b]pyridazin-6-yl]-thiophen-2-yl}-(4-methanesulfonyl-piperazin-1-yl)-methanone], the pIC50 was 7.19 in the test with HepG2 cells, 8.70 on c-Met [1] and 8.40 at c-Met [2].

For `CS(=O)(=O)n1cc(-c2ccc3nnc(C(F)(F)c4ccc5ncccc5c4)n3n2)cn1` [Example 99, 6-{Difluoro-[6-(1-methanesulfonyl-1H-pyrazol-4-yl)-[1,2,4]triazolo[4,3-b]pyridazin-3-yl]-methyl}-quinoline], the pIC50 was 5.96 in the test with HepG2 cells, 8.70 at c-Met [1] and 7.47 on c-Met [2].

As to `CCCc1ncc(-c2ccc3nnc(C(F)(F)c4ccc5ncccc5c4)n3n2)s1` [Example 104, 6-{Difluoro-[6-(2-propyl-thiazol-5-yl)-[1,2,4]triazolo[4,3-b]pyridazin-3-yl]-methyl}-quinoline], the pIC50 with HepG2 cells was 6.27; on c-Met [1] it was 8.70; on c-Met [2], 7.43.

(Values after US8173654B2, “Triazolopyridazine compounds” (Janssen Pharmaceutica N.V., priority 2005, dated 2012).)
